Numbers after ± are expanded uncertainties.
Experiment: xn = mol fraction of the nth substance listed
Settings: Fluid (supercritical or subcritical phases), Buoyancy - hydrostatic balance with magnetic suspension - one sinker, x2 = 0.95

## C [methane] + O=C=O
305.16 K, 9767.1 kPa
  mass density: 617.141 ± 1.5 kg/m3
305.16 K, 9967.5 kPa
  mass density: 629.726 ± 1.3 kg/m3
305.17 K, 9370.3 kPa
  mass density: 584.841 ± 1.9 kg/m3
306.1 K, 7971 kPa
  mass density: 291.729 ± 1.4 kg/m3
306.14 K, 8569.3 kPa
  mass density: 407.211 ± 3.1 kg/m3
306.15 K, 8769.4 kPa
  mass density: 456.137 ± 3.2 kg/m3
306.15 K, 9367.9 kPa
  mass density: 559.009 ± 2.1 kg/m3
306.15 K, 9567.4 kPa
  mass density: 580.099 ± 1.8 kg/m3
306.15 K, 9767.6 kPa
  mass density: 597.343 ± 1.6 kg/m3
306.16 K, 9168.1 kPa
  mass density: 532.249 ± 2.5 kg/m3
306.17 K, 8170.1 kPa
  mass density: 321.108 ± 1.9 kg/m3
306.17 K, 8969 kPa
  mass density: 498.232 ± 2.9 kg/m3
306.17 K, 9967.5 kPa
  mass density: 611.559 ± 1.5 kg/m3
306.18 K, 8370.6 kPa
  mass density: 359.348 ± 2.5 kg/m3
307.11 K, 7970.8 kPa
  mass density: 279.021 ± 1.2 kg/m3
307.15 K, 8769.2 kPa
  mass density: 417.545 ± 2.9 kg/m3
307.15 K, 9369.4 kPa
  mass density: 530.475 ± 2.3 kg/m3
307.15 K, 9968.3 kPa
  mass density: 592.558 ± 1.6 kg/m3
307.16 K, 8569.4 kPa
  mass density: 373.594 ± 2.5 kg/m3
307.16 K, 9769.9 kPa
  mass density: 575.499 ± 1.8 kg/m3
307.17 K, 8370.1 kPa
  mass density: 335.111 ± 1.9 kg/m3
307.17 K, 9567.7 kPa
  mass density: 554.846 ± 2 kg/m3
307.18 K, 8170.2 kPa
  mass density: 303.687 ± 1.5 kg/m3
307.18 K, 8969.6 kPa
  mass density: 460.414 ± 2.9 kg/m3
307.19 K, 9168.1 kPa
  mass density: 498.151 ± 2.7 kg/m3
308.14 K, 7971.8 kPa
  mass density: 268.365 ± 1 kg/m3
308.15 K, 8969.6 kPa
  mass density: 425.843 ± 2.7 kg/m3
308.16 K, 8773.5 kPa
  mass density: 385.91 ± 2.4 kg/m3
308.16 K, 9568.1 kPa
  mass density: 527.899 ± 2.2 kg/m3
308.16 K, 9772 kPa
  mass density: 552.011 ± 1.9 kg/m3
308.16 K, 9967.3 kPa
  mass density: 570.979 ± 1.7 kg/m3
308.17 K, 8171.2 kPa
  mass density: 290.106 ± 1.2 kg/m3
308.17 K, 8372.6 kPa
  mass density: 316.707 ± 1.5 kg/m3
308.17 K, 9169 kPa
  mass density: 464.65 ± 2.7 kg/m3
308.17 K, 9368.5 kPa
  mass density: 499.11 ± 2.4 kg/m3
308.18 K, 8570.3 kPa
  mass density: 347.84 ± 2 kg/m3
309.13 K, 7972 kPa
  mass density: 259.723 ± 0.88 kg/m3
309.15 K, 8969.7 kPa
  mass density: 395.876 ± 2.3 kg/m3
309.15 K, 9967.3 kPa
  mass density: 548.766 ± 1.8 kg/m3
309.16 K, 9568.6 kPa
  mass density: 499.83 ± 2.2 kg/m3
309.16 K, 9768.9 kPa
  mass density: 526.36 ± 2 kg/m3
309.17 K, 8171 kPa
  mass density: 279.024 ± 1 kg/m3
309.17 K, 8570.8 kPa
  mass density: 328.632 ± 1.6 kg/m3
309.17 K, 8772.2 kPa
  mass density: 360.359 ± 2 kg/m3
309.17 K, 9170.1 kPa
  mass density: 432.906 ± 2.5 kg/m3
309.17 K, 9369 kPa
  mass density: 468.272 ± 2.4 kg/m3
309.18 K, 8371.4 kPa
  mass density: 301.81 ± 1.3 kg/m3
310.13 K, 7971.6 kPa
  mass density: 252.206 ± 0.8 kg/m3
310.15 K, 9168.8 kPa
  mass density: 404.887 ± 2.2 kg/m3
310.15 K, 9768.4 kPa
  mass density: 500.279 ± 2.1 kg/m3
310.16 K, 9368.7 kPa
  mass density: 438.984 ± 2.3 kg/m3
310.17 K, 8169.9 kPa
  mass density: 269.525 ± 0.91 kg/m3
310.17 K, 8371.3 kPa
  mass density: 289.994 ± 1.1 kg/m3
310.17 K, 8570.5 kPa
  mass density: 313.293 ± 1.3 kg/m3
310.17 K, 8969.4 kPa
  mass density: 370.784 ± 1.9 kg/m3
310.17 K, 9568.2 kPa
  mass density: 470.935 ± 2.2 kg/m3
310.17 K, 9969.4 kPa
  mass density: 524.504 ± 1.9 kg/m3
310.18 K, 8771.3 kPa
  mass density: 340.177 ± 1.6 kg/m3
311.13 K, 7972.7 kPa
  mass density: 245.539 ± 0.72 kg/m3
311.15 K, 8969.4 kPa
  mass density: 351.047 ± 1.6 kg/m3
311.16 K, 9169.2 kPa
  mass density: 380.674 ± 1.9 kg/m3
311.17 K, 8170.7 kPa
  mass density: 261.395 ± 0.82 kg/m3
311.17 K, 8372.1 kPa
  mass density: 279.845 ± 0.96 kg/m3
311.17 K, 8571.3 kPa
  mass density: 300.517 ± 1.1 kg/m3
311.17 K, 9768.1 kPa
  mass density: 473.276 ± 2.1 kg/m3
311.17 K, 9967.8 kPa
  mass density: 499.737 ± 2 kg/m3
311.18 K, 9568.6 kPa
  mass density: 443.32 ± 2.1 kg/m3
311.19 K, 8770.5 kPa
  mass density: 323.691 ± 1.4 kg/m3
311.19 K, 9369 kPa
  mass density: 411.617 ± 2.1 kg/m3
312.13 K, 7972.4 kPa
  mass density: 239.656 ± 0.67 kg/m3
312.17 K, 8771.1 kPa
  mass density: 310.807 ± 1.2 kg/m3
312.17 K, 9568.6 kPa
  mass density: 418.783 ± 1.9 kg/m3
312.17 K, 9768.9 kPa
  mass density: 448.071 ± 2 kg/m3
312.17 K, 9967.7 kPa
  mass density: 475.106 ± 2 kg/m3
312.18 K, 8571.5 kPa
  mass density: 289.726 ± 0.99 kg/m3
312.18 K, 9169.8 kPa
  mass density: 360.525 ± 1.6 kg/m3
312.19 K, 8172.7 kPa
  mass density: 254.332 ± 0.74 kg/m3
312.19 K, 8372.2 kPa
  mass density: 270.995 ± 0.85 kg/m3
312.19 K, 8970.5 kPa
  mass density: 334.208 ± 1.4 kg/m3
312.19 K, 9369.6 kPa
  mass density: 388.871 ± 1.8 kg/m3
313.14 K, 7973.3 kPa
  mass density: 234.195 ± 0.64 kg/m3
313.17 K, 8571.8 kPa
  mass density: 280.559 ± 0.88 kg/m3
313.17 K, 8771.6 kPa
  mass density: 299.532 ± 1 kg/m3
313.17 K, 8970.6 kPa
  mass density: 320.608 ± 1.2 kg/m3
313.17 K, 9170.2 kPa
  mass density: 344.172 ± 1.4 kg/m3
313.17 K, 9369.7 kPa
  mass density: 369.68 ± 1.6 kg/m3
313.17 K, 9768.4 kPa
  mass density: 424.626 ± 1.9 kg/m3
313.18 K, 8171.5 kPa
  mass density: 247.96 ± 0.68 kg/m3
313.18 K, 8372.5 kPa
  mass density: 263.421 ± 0.77 kg/m3
313.18 K, 9569.1 kPa
  mass density: 396.668 ± 1.8 kg/m3

— the NIST ThermoML archive (doi:10.1016/j.fluid.2015.08.029)
